Assays:
Assay type in all cases: cell-based
[1] = tested on: HT1080-EGFP (human/fibrosarcoma) cells; assay: Evaluation of toxicity: CCK-8 assay; conditions: lipid nanoparticle containing siRNA; absorbance relative to control cells without lipid nanoparticle set at 1.00
Description: A. Provision of Cells • (i) A liquid medium (DMEM/Ham's F12, FBS+, P/S+) (FBS: fetal bovine serum, P/S: antibiotic) was taken out from a refrigerator and temperature-controlled in an incubator set at 37° C. • (ii) A cryotube containing the cells was taken out from a −80° C. freezer and thawed at once in an incubator set at 37° C. • (iii) A stock solution of the thawed cells was collected in a capped test tube. • (iv) The tube containing the cells was washed with the liquid medium, and the wash was also collected in the test tube. • (v) The tube was subjected to a centrifuge to precipitate the cells. • (vi) The supernatant was aspirated, and the liquid medium was added and gently tapped to disperse the cells. • (vii) A small amount of the cells-dispersed liquid medium was collected, and the number of cells was observed and counted under a microscope. • (viii) The cells were seeded in a 24-well plate such that the number of cells was 2×10^4 cells per well. For the plate for an LDH assay described later, the cells were seeded in a 96-well plate such that the number of cells was 4×10^3 cells per well. • (ix) The 24-well plate or the 96-well plate was placed in an incubator, and the cells were cultured for 24 hours under conditions of 37° C. and 5% CO2.
The produced lipid nanoparticles were introduced into cells. • (i) Fetal bovine serum (FBS) was added to a liquid medium (FBS-, P/S-) temperature-controlled as in (i) of A above, in such a way as to reach 10%. • (ii) A 24-well plate was taken out from an incubator, and the liquid medium supernatant in the 24-well plate was aspirated and washed with phosphate buffered saline (PBS). • (iii) 400 μL of the liquid medium produced in (i) above was added to the washed 24-well plate. In addition, 100 μL of an LNP solution having an adjusted concentration was added. • (iv) The 24-well plate was placed in the incubator, and the cells were cultured (for 24 hours). • (v) After 24 hours, the liquid medium supernatant in the 24-well plate was aspirated, and 500 μL of a liquid medium containing 10% FBS (FBS+/P/S+) was added. • (vi) The 24-well plate was placed in the incubator, and the cells were cultured for 24 hours under conditions of 37° C. and 5% CO2.
For Examples 1 to 9, a CCK-8 assay or an LDH assay was carried out to measure the metabolic activity of viable cells and relatively quantify the number of surviving cells to evaluate the toxicity of lipid nanoparticles.
(a) CCK-8 Assay • (i) Fetal bovine serum (FBS) and a viable cell counting kit (manufactured by DOJINDO LABORATORIES, Cell Count Kit-8) was added to a liquid medium (FBS-, P/S-) temperature-controlled as in (i) of A above, such that FBS was 10% and the kit was 10%. • (ii) A 24-well plate was taken out from an incubator. The liquid medium was removed, and 315 μL of the liquid medium containing the viable cell counting kit produced in (i) above was added. • (iii) The liquid medium was aged for 1 hour in the incubator. • (iv) The 24-well plate was taken out, and the absorbance was measured under conditions of a measurement wavelength of 450 nm and a target wavelength of 630 nm with a plate reader (manufactured by TECAN, Infinite M200). The absorbance was calculated with the absorbance of control cells to which no lipid nanoparticle was added set at 1.00. When the obtained value was 0.80 or more and 1.00 or less, a rating of double-circle (excellent) was given, when the obtained value was 0.50 or more and less than 0.80, a rating of circle (good) was given, when the obtained value was 0.20 or more and less than 0.50, a rating of triangle (fair) was given, and when the obtained value was less than 0.20, a rating of X-mark (poor) was given.

HEK293T cells = assay: Evaluation of protein expression effect (luciferase luminescence), Cell experiment 2; conditions: lipid nanoparticle containing mRNA, 100 ng mRNA/20 μL per well, 24 hours, amount of luminescence as index
Description: (§1) For lipids (Ia), (Ib), and (Ie) of Examples 1, 2, and 5, a cell experiment was carried out by using HEK293T cells and NIH3T3 cells in order to evaluate lipid nanoparticles encapsulating an mRNA. By transfecting the cells with lipid nanoparticles and measuring the amount of a predetermined protein produced, the performance of the lipid nanoparticles used can be evaluated. Hereinafter, the procedure of the cell experiment will be shown.
(§2) A. Seeding of Cells • (i) A liquid medium (DMEM High glucose, FBS+, P/S+) was temperature-controlled in an incubator set at 37° C. • (ii) A cryotube containing cells was taken out from a −80° C. freezer and thawed at once in the incubator set at 37° C. • (iii) A test tube was subjected to a centrifuge to precipitate the cells. • (iv) The supernatant was aspirated, and the liquid medium was added and gently tapped to disperse the cells. • (v) A small amount of the cells-dispersed liquid medium was collected, and the number of cells was observed and counted under a microscope. • (vi) The cells were seeded in three 24-well black plates such that the number of cells was 1×10^4 cells per well. The 24-well black plates were placed in an incubator, and the cells were cultured for 24 hours under conditions of 37° C. and 5% CO2.
(§3) B. Transfection • (i) A lipid nanoparticle-containing solution including an mRNA was concentrated such that the mRNA concentration was 100 ng/20 μL (=0.005 μg/μL). • (ii) A liquid medium (DMEM High glucose, FBS-, P/S-) and FBS were warmed to 37° C., required amounts of the liquid medium and FBS were mixed (FBS concentration of liquid medium at this time: 12.5%), and the prepared liquid medium was filter-sterilized through a 0.22 μm filter. • (iii) The liquid medium supernatant in the 24-well black plates in which the cells were cultured was aspirated and 80 μL per well of the prepared liquid medium was added. • (iv) 20 μL per well of RFW and the lipid nanoparticle-containing solution adjusted to the above concentration was added. • (v) The 24-well black plates were placed in an incubator, and the cells were cultured for 24 hours under conditions of 37° C. and 5% CO2.
(§4) C. Evaluation of Protein Expression Effect (Detection of Gaussia Luciferase (GLuc))
(§5) Evaluation of the protein expression effect was carried out by using Gaussia Luciferase Assay Kit manufactured by Thermo Scientific. • (i) The cells cultured in B. (v) above were taken out from the incubator and allowed to stand at room temperature. • (ii) 20 μL of the supernatant in the plates was collected and added to a fresh 96-well white plate. • (iii) 100× Coelenterazine and Gaussia Glow Assay Buffer attached to the kit were returned to room temperature and mixed at 1:100 to prepare a solution. The prepared solution was added to the supernatant at 50 μL per well by using a multipipette. • (iv) The plate was shielded from light with aluminum foil, allowed to stand for 10 minutes, and then measured for the amount of luminescence with a plate reader (manufactured by TECAN, Infinite M200) (measurement time: 2 seconds), and the protein expression level was calculated by using the resulting amount of luminescence as an index.

NIH3T3 cells = assay: as above; conditions: lipid nanoparticle containing mRNA, 100 ng mRNA/20 μL per well, 24 hours, amount of luminescence as index
Description: as §1, §2, §3, §4, §5

SMILES	CCK Assay [1]	Protein expression level (HEK293T cells)	Protein expression level (NIH3T3 cells)
CCCCCCCC/C=C\CCCCCCCCC(CCCCCCC/C=C\CCCCCCCC)OC(=O)C(CC(=O)O)NC(=O)C(N)CCCNC(=N)N (stereo not drawn) [Example 1, 3-(2-amino-5-guanidinopentanamido)-4-(((9Z,27Z)-hexatriaconta-9,27-dien-18-yl)oxy)-4-oxobutanoic acid]	⊚ (When the obtained value was 0.80 or more and 1.00 or less, a rating of double-circle (excellent) was given)	100,000	5,000
CCCCCCCC/C=C\CCCCCCCCC(CCCCCCC/C=C\CCCCCCCC)OC(=O)C(CCC(=O)O)NC(=O)C(N)CCCNC(=N)N (stereo not drawn) [Example 2, 4-(2-amino-5-guanidinopentanamido)-5-(((9Z,27Z)-hexatriaconta-9,27-dien-18-yl)oxy)-5-oxopentanoic acid]	⊚ (When the obtained value was 0.80 or more and 1.00 or less, a rating of double-circle (excellent) was given)	800,000	25,000
CCCCCCCC/C=C\CCCCCCCCC(CCCCCCC/C=C\CCCCCCCC)OC(=O)C(CO)NC(=O)C(N)CCCNC(=N)N [Example 4, (9Z,27Z)-hexatriaconta-9,27-dien-18-yl (2S)-2-((S)-2-amino-5-guanidinopentanamido)-3-hydroxypropionate]	◯ (when the obtained value was 0.50 or more and less than 0.80, a rating of circle (good) was given)	–	–
CCCCCCCC/C=C\CCCCCCCCC(CCCCCCC/C=C\CCCCCCCC)OC(=O)C(NC(=O)C(N)CCCNC(=N)N)C(C)O [Example 5, (9Z,27Z)-hexatriaconta-9,27-dien-18-yl (2S)-2-((S)-2-amino-5-guanidinopentanamido)-3-hydroxybutanoate]	–	100,000	60,000

Source: US20240148664A1, “LIPID AND COMPOSITION” (SOGO PHARMACEUTICAL CO., LTD., priority 2021, published 2024)
